Laboratory results as given in patent US20200385370A1 (SYNBLIA THERAPEUTICS, INC., priority 2017, published 2020).

Biological target: T1, GST tagged IRAK4 (Homo sapiens, UniProt Q9NWZ3)
T1 construct: purchased SignalChem
T1 sequence (Q9NWZ3 1-460): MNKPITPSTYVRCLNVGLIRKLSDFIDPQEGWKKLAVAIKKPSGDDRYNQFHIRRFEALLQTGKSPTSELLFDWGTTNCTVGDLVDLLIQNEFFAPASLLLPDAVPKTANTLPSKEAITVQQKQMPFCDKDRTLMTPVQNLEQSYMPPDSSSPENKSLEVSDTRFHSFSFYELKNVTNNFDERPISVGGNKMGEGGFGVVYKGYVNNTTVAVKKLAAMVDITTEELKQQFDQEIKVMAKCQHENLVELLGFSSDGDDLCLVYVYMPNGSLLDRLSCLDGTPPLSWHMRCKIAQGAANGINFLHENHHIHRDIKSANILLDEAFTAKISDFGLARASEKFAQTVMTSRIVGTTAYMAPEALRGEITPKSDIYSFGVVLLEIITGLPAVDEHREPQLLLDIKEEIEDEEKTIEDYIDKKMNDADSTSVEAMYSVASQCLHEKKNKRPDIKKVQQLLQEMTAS
Experiment: IRAK4 kinase activity assay, IMAP fluorescence polarization, phosphorylation of fluorescently labeled peptide
Assay type: biochemical
Settings: 0.5 nM GST tagged IRAK4, 100 nM peptide substrate, 100 μM ATP, 30 minutes at 25° C.
Method: The kinase activity of IRAK4 is measured by its ability to phosphorylate a fluorescently labeled synthetic peptide in the presence of ATP. The assay format is based on the Immobilized Metal Ion Affinity-Based Fluorescence Polarization (IMAP) platform developed by Molecular Devices. Briefly, reaction mixture (20 μL) contains the assay buffer (20 mM Tris.Cl, pH 7.2, 1 mM MgCl2, 1 mM DTT, and 0.02% Tween 20), 0.5 nM GST tagged IRAK4 (SignalChem), 100 nM peptide substrate and 100 μM ATP. The amino acid sequence of the peptide substrate is 5FAM-RKRQGSVRRRVH-COOH (Cat #: RP7030, Molecular Devices). The reaction is initiated by adding substrates ATP and RP7030, and terminated by adding Stop solution (60 μL) after 30 minutes of incubation at 25° C. The Stop solution is prepared with IMAP Progressive Reagent A/B and Binding reagent according to vender's instruction. The extent of phosphorylation of the peptide is measured by changes in Fluorescence Polarization (FP) resulting from binding of phosphate group on the peptide with immobilized metal coordination complexes on the nanoparticles included in the Stop solution. Errors in the calculated IRAK4 IC50 values range from 4-12% from duplicate experiments.

**Q.** Which IC50 does the source give for `NC(=O)c1cc2ccnc3c2cc1OCCOCCN1C(=O)CCC1CO3` (centres unmarked) [Compound IX, 4^5-oxo-2,7,10-trioxa-1(1,7)-isoquinolina-4(2,1)-pyrrolidinacyclodecaphane-1^6-carboxamide] here?
**A.** Its IC50 is 3 to 10 µM.

**Q.** Which IC50 does the source give for `COc1cc2c(OC[C@@H]3CCC(=O)N3)nccc2cc1C(N)=S` [Compound XI, (S)-7-methoxy-1-((5-oxopyrrolidin-2-yl)methoxy)isoquinoline-6-carbothioamide] here?
**A.** The IC50 was 0.5 to 3 µM.

**Q.** Which IC50 does the source give for `NC(=O)c1cc2ccnc3c2cc1OCCOCC(=O)N1CC(CO3)C1` [Compound XIV, 5-oxo-2,7,10-trioxa-1(1,7)-isoquinolina-4(3,1)-azetidinacyclodecaphane-16-carboxamide] here?
**A.** The IC50 was 0.5 to 3 µM.

**Q.** For `COc1cc2c(N3CCC[C@H](N)C3)nccc2cc1C(N)=O` [Compound XX, (S)-1-(3-aminopiperidin-1-yl)-7-methoxyisoquinoline-6-carboxamide], which IC50 is on record?
**A.** Its IC50 is < 0.5 µM.

**Q.** With `COc1cc2c(N3CCC[C@H](O)C3)nccc2cc1C(N)=O` [Compound XXI, (S)-1-(3-hydroxypiperidin-1-yl)-7-methoxyisoquinoline-6-carboxamide] as the molecule, how does the IC50 read?
**A.** The IC50 was 0.5 to 3 µM.

**Q.** `CC#Cc1cnc(NC[C@@H]2CCC(=O)N2)c2cc(OC)c(C(N)=O)cc12` [Compound XXII, (S)-7-methoxy-1-(((5-oxopyrrolidin-2-yl)methyl)amino)-4-(prop-1-yn-1-yl) isoquinoline-6-carboxamide] was tested. Which IC50 did it give?
**A.** The IC50 was < 0.5 µM.

**Q.** Which IC50 does the source give for `CCC[C@@H]1CC(=O)N2COCCOc3cc4c(nccc4cc3C(N)=O)OC[C@H]12` [Compound XXIV, (4^2S,4^3R)-4^5-oxo-4^3-propyl-2,6,9-trioxa-1 (1,7)-isoquinolina-4 (2,1)-pyrrolidinacyclononaphane-1^6-carboxamide] here?
**A.** The IC50 was 0.5 to 3 µM.

**Q.** With `COc1cc2c(N[C@@H]3CCCNC3)nccc2cc1C(N)=O` [Compound XXIX, (R)-7-methoxy-1-(piperidin-3-ylamino) isoquinoline-6-carboxamide] as the molecule, how does the IC50 read?
**A.** The IC50 was 0.5 to 3 µM.

**Q.** With `C[C@@H]1CC(=O)N2COCCOc3cc4c(nccc4cc3C(N)=O)OC[C@H]12` [Compound XXV, (4^2S, 4^3R)-4^3-methyl-4^5-oxo-2,6,9-trioxa-1 (1,7)-isoquinolina-4 (2,1)-pyrrolidinacyclononaphane-1^6-carboxamide] as the molecule, how does the IC50 read?
**A.** The IC50 was < 0.5 µM.

**Q.** Which IC50 does the source give for `COc1cc2c(N3CCC(C)(CN)CC3)nccc2cc1C(N)=O` [Compound XXVI, 1-(4-(aminomethyl)-4-methylpiperidin-1-yl)-7-methoxyisoquinoline-6-carboxamide] here?
**A.** Its IC50 is 0.5 to 3 µM.

**Q.** For `COc1cc2c(N3CCC(N)CC3)nccc2cc1C(N)=O` [Compound XXVII, 1-(4-aminopiperidin-1-yl)-7-methoxyisoquinoline-6-carboxamide], which IC50 is on record?
**A.** Its IC50 is 0.5 to 3 µM.

**Q.** How did the IC50 turn out when `CC[C@@H]1CC(=O)N[C@@H]1CNc1nccc2cc(C(N)=O)c(OC)cc12` [Compound XXVIII, 1-((((2S, 3R)-3-ethyl-5-oxopyrrolidin-2-yl)methyl)amino)-7-methoxyisoquinoline-6-carboxamide] was run?
**A.** Its IC50 is < 0.5 µM.

**Q.** For `COc1cc2c(N[C@@H]3CCCN(C(=O)CC#N)C3)nccc2cc1C(N)=O` [Compound XXX, (R)-1-((1-(2-cyanoacetyl)piperidin-3-yl)amino)-7-methoxyisoquinoline-6-carboxamide], which IC50 is on record?
**A.** The IC50 was 3 to 10 µM.

**Q.** For `COc1cc2c(S[C@@H]3CCCN(C(=O)CC#N)C3)nccc2cc1C(N)=O` [Compound XXXI, (R)-1-((1-(2-cyanoacetyl)piperidin-3-yl)thio)-7-methoxyisoquinoline-6-carboxamide], which IC50 is on record?
**A.** The IC50 was 3 to 10 µM.

**Q.** Which IC50 does the source give for `COc1cc2c(N[C@@H]3CCNC3)nccc2cc1C(N)=O` [Compound XXXII, (R)-7-methoxy-1-(pyrrolidin-3-ylamino)isoquinoline-6-carboxamide] here?
**A.** The IC50 was 0.5 to 3 µM.

**Q.** For `COc1cc2c(OCC3CCC(=O)N3)nccc2cc1OC(N)=O` (centres unmarked) [II, 7-methoxy-1-((5-oxopyrrolidin-2-yl)methoxy)isoquinolin-6-yl carbamate], which IC50 is on record?
**A.** Its IC50 is 3 to 10 µM.

**Q.** For `COc1cc2c(OCC3CCC(=O)N3)nccc2cc1C(=O)NO` (centres unmarked) [IV, N-hydroxy-7-methoxy-1-((5-oxopyrrolidin-2-yl)methoxy) isoquinoline-6-carboxamide], which IC50 is on record?
**A.** The IC50 was 3 to 10 µM.

**Q.** How did the IC50 turn out when `COc1cc2c(NCC3CCC(=O)N3)nccc2cc1C(N)=O` (centres unmarked) [VII, 7-methoxy-1-(((5-oxopyrrolidin-2-yl)methyl)amino) isoquinoline-6-carboxamide] was run?
**A.** The IC50 was 0.5 to 3 µM.

**Q.** `COc1cc2c(OC[C@@H]3CCC(=O)N3)nccc2cc1C(=O)S` [XIII, (S)-7-methoxy-1-((5-oxopyrrolidin-2-yl)methoxy) isoquinoline-6-carbothioic S-acid] was tested. Which IC50 did it give?
**A.** The IC50 was 0.5 to 3 µM.

**Q.** How did the IC50 turn out when `CC[C@@H]1CC(=O)N2COCCOc3cc4c(nccc4cc3C(N)=O)OC[C@H]12` [XIX, (4^2S, 4^3R)-4^3-ethyl-4^5-oxo-2,6,9-trioxa-1 (1,7)-isoquinolina-4 (2,1)-pyrrolidinacyclononaphane-1^6-carboxamide] was run?
**A.** Its IC50 is 0.5 to 3 µM.

**Q.** For `NC(=O)c1cc2ccnc3c2cc1OCCOCN1C(=O)OCC1CO3` (centres unmarked) [XVII, 1^2-oxo-3,5,8-trioxa-1(4,3)-oxazolidina-4(1,7)-isoquinolinacyclononaphane-4^6-carboxamide], which IC50 is on record?
**A.** Its IC50 is 0.5 to 3 µM.

**Q.** For `NC(=O)c1cc2ccnc3c2cc1OCCOCN1C(=O)CC[C@H]1CO3` [XVIII, (S)-4^5-oxo-2,6,9-trioxa-1(1,7)-isoquinolina-4(2,1)-pyrrolidinacyclononaphane-1^6-carboxamide], which IC50 is on record?
**A.** The IC50 was < 0.5 µM.

**Q.** For `COc1cc2c(ccn2[C@H]2CC[C@H](N)C2)cc1C(N)=O` [XXIII, 1-((1S, 3S) 3-aminocyclopentyl)-6-methoxy-1H-indole-5-carboxamide], which IC50 is on record?
**A.** The IC50 was 0.5 to 3 µM.

**Q.** For `CC#Cc1cnc(N2CCC[C@H](N)C2)c2cc(OC)c(C(N)=O)cc12` [XXXIV, (S)-1-(3-aminopiperidin-1-yl)-7-methoxy-4-(prop-1-yn-1-yl)soquinoline-6-carboxamide], which IC50 is on record?
**A.** Its IC50 is < 0.5 µM.

**Q.** `COc1cc2c(N3CCC[C@H](N)C3)ncc(Br)c2cc1C(N)=O` [XXXV, (S)-1-(3-aminopiperidin-1-yl)-4-bromo-7-methoxyisoquinoline-6-carboxamide] was tested. Which IC50 did it give?
**A.** Its IC50 is 0.5 to 3 µM.

**Q.** How did the IC50 turn out when `COc1cc2c(N3CCC[C@H](N)C3)ncc(C#N)c2cc1C(N)=O` [XXXVI, (S)-1-(3-aminopiperidin-1-yl)-4-cyano-7-methoxyisoquinoline-6-carboxamide] was run?
**A.** Its IC50 is 0.5 to 3 µM.
